# Data published in article PMC12566046, “Arylpiperazinyl-Benzocycloheptapyrrole-Carboxamides Endowed with Dual Anticancer and Antiviral Activities” (Molecules, 2025).
# Assays:
# [1] = system: SK-MEL-2 (melanoma cell line); experiment: NCI-60 five-dose assay; conditions: for GI50 / CC50: Homo sapiens; for GI50: SK-MEL-2, read-out: Growth inhibition 50 (GI50); for CC50: SK-MEL-2, read-out: LC50 (molar concentration leading to 50% net cell death); for TGI (molar concentration giving total growth inhibition): SK-MEL-2
# [2] = system: HCT-15 (colon cancer cell line); experiment: NCI-60 five-dose assay; assay type: cell-based, human; conditions: Homo sapiens, five doses (10^−4–10^−8 M), read-out: Growth inhibition 50 (GI50)
# [3] = system: LOX IMVI (melanoma cell line); experiment: NCI-60 five-dose assay; conditions: for GI50: read-out: Growth inhibition 50 (GI50)
# [4] = system: UACC-257 (melanoma cell line); experiment: NCI-60 five-dose assay; conditions: for GI50: UACC-257, read-out: Growth inhibition 50 (GI50); for TGI (molar concentration giving total growth inhibition): UACC-257
# [5] = system: MALME-3M (melanoma cell line); experiment: NCI-60 five-dose assay; conditions: for GI50 / CC50: Homo sapiens, Malme-3M; for GI50: read-out: Growth inhibition 50 (GI50); for CC50: read-out: LC50 (molar concentration leading to 50% net cell death); for TGI (molar concentration giving total growth inhibition): MALME-3M
# [6] = system: SW-620 (colon cancer cell line); experiment: NCI-60 five-dose assay; assay type: cell-based, human; conditions: Homo sapiens; SW-620; five doses (10^−4–10^−8 M); read-out: Growth inhibition 50 (GI50)
# [7] = Cytotoxicity on uninfected Huh-7 cells (WST-8, crystal violet); conditions: human, uninfected Huh-7 cells
# [8] = system: COLO 205 (colon cancer cell line); experiment: NCI-60 five-dose assay; assay type: cell-based, human; conditions: Homo sapiens, five doses (10^−4–10^−8 M), read-out: Growth inhibition 50 (GI50)
# [9] = system: SARS-CoV-2 VR PV10734 (strain Milano); experiment: microbe, parasite or virus in culture; assay type: cell-based; conditions: Severe acute respiratory syndrome coronavirus 2; preliminary screening (50, 5, 0.5 μM), Vero TMPRSS; read-out: SARS‐CoV‐2/Vero TMPRSS EC50
# [10] = system: IAV strain A/PR/8/34 (H1N1); conditions: preliminary screening
# [11] = system: CCRF-CEM (leukemia cell line); experiment: NCI-60 five-dose assay; assay type: cell-based, human; conditions: Homo sapiens, five doses (10^−4–10^−8 M), read-out: Growth inhibition 50 (GI50)
# [12] = system: HT29 (colon cancer cell line); experiment: NCI-60 five-dose assay; assay type: cell-based, human; conditions: Homo sapiens, HT-29, five doses (10^−4–10^−8 M), read-out: Growth inhibition 50 (GI50)
# [13] = in vitro; conditions: dog
# [14] = system: HCT-116 (colon cancer cell line); experiment: NCI-60 five-dose assay; assay type: cell-based, human; conditions: Homo sapiens, five doses (10^−4–10^−8 M), read-out: Growth inhibition 50 (GI50)
# [15] = system: SK-MEL-28 (melanoma cell line); experiment: NCI-60 single-dose assay; assay type: cell-based, human; conditions: human
# How it was run: (§1)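 Read-out is cytotoxic activity from a single-concentration test; the panel spans nine human cancer types, including leukemia, lung, colon and renal.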
# [16] = system: EKVX (non-small cell lung cancer cell line); experiment: NCI-60 single-dose assay; assay type: cell-based, human; conditions: Homo sapiens, read-out: growth inhibition (GI%) and cytotoxicity (negative values)
# How it was run: as §1
# [17] = system: MCF-7 (breast cancer cell line); experiment: NCI-60 single-dose assay; assay type: cell-based, human; conditions: Homo sapiens, MCF7, read-out: growth inhibition (GI%) and cytotoxicity (negative values), MCF-7, 10^−5 M
# How it was run: as §1
# [18] = system: SK-MEL-5 (melanoma cell line); experiment: NCI-60 single-dose assay; assay type: cell-based, human; conditions: human
# How it was run: as §1
# [19] = system: CAKI-1 (renal cancer cell line); experiment: NCI-60 single-dose assay; assay type: cell-based, human; conditions: Homo sapiens, CAKI-1, read-out: growth inhibition (GI%) and cytotoxicity (negative values)
# How it was run: as §1
# [20] = system: NCI-H23 (non-small cell lung cancer cell line); experiment: NCI-60 single-dose assay; assay type: cell-based, human; conditions: Homo sapiens, NCI-H23, read-out: growth inhibition (GI%) and cytotoxicity (negative values)
# How it was run: as §1
# [21] = system: HL-60(TB) (leukemia cell line); experiment: NCI-60 single-dose assay; assay type: cell-based, human; conditions: human
# [22] = system: HT29 (colon cancer cell line); experiment: NCI-60 single-dose assay; assay type: cell-based, human
# How it was run: as §1
# [23] = system: M14 (melanoma cell line); experiment: NCI-60 single-dose assay; assay type: cell-based, human; conditions: human
# How it was run: as §1
# [24] = system: SN12C (renal cancer cell line); experiment: NCI-60 single-dose assay; assay type: cell-based, human; conditions: Homo sapiens, read-out: growth inhibition (GI%) and cytotoxicity (negative values)
# How it was run: as §1
# [25] = system: HCC-2998 (colon cancer cell line); experiment: NCI-60 single-dose assay; assay type: cell-based, human; conditions: human
# How it was run: as §1
# [26] = system: MALME-3M (melanoma cell line); experiment: NCI-60 single-dose assay; assay type: cell-based, human; conditions: human
# How it was run: as §1
# [27] = system: RXF 393 (renal cancer cell line); experiment: NCI-60 single-dose assay; assay type: cell-based, human
# How it was run: as §1
# [28] = system: KM12 (colon cancer cell line); experiment: NCI-60 single-dose assay; assay type: cell-based, human; conditions: Homo sapiens, KM12, read-out: growth inhibition (GI%) and cytotoxicity (negative values)
# How it was run: as §1
# [29] = system: SW-620 (colon cancer cell line); experiment: NCI-60 single-dose assay; assay type: cell-based, human
# How it was run: as §1
# [30] = system: RPMI-8226 (leukemia cell line); experiment: NCI-60 single-dose assay; assay type: cell-based, human
# How it was run: as §1
# [31] = system: SK-MEL-2 (melanoma cell line); experiment: NCI-60 single-dose assay; assay type: cell-based, human
# How it was run: as §1
# [32] = system: KM12 (colon cancer cell line); experiment: NCI-60 five-dose assay; assay type: cell-based, human; conditions: Homo sapiens, five doses (10^−4–10^−8 M), read-out: Growth inhibition 50 (GI50)
# [33] = system: MDA-MB-468 (breast cancer); experiment: NCI-60 five-dose assay; assay type: cell-based, human; conditions: Homo sapiens, five-dose screen
# [34] = system: RXF 393 (renal cancer cells); experiment: NCI-60 five-dose assay; assay type: cell-based, human; conditions: Homo sapiens, five-dose screen
Structure (SMILES),GI50 [1],CC50 [1],TGI (molar concentration giving total growth inhibition) [1],GI50 [2],TGI (molar concentration giving total growth inhibition) [3],GI50 ([3]; Homo sapiens),GI50 ([4]; Homo sapiens),TGI (molar concentration giving total growth inhibition) [4],GI50 [5],CC50 [5],TGI (molar concentration giving total growth inhibition) [5],GI50 [6],CC50 at 48 h [7],GI50 [8],GI50 [11],GI50 [12],CC50 [13],GI50 [14],growth inhibition (GI%) and cytotoxicity (negative values) [15],inhibition at 10 µM [16],further results
"O=C(NCCCN1CCN(Cc2ccccc2)CC1)c1c(Cl)[nH]c2c1CCCc1ccccc1-2 [Compound 20, N-(3-(4-Benzylpiperazin-1-yl)propyl)-2-chloro-1,4,5,6-tetrahydrobenzo[6,7]cyclohepta[1,2-b]pyrrole-3-carboxamide]",13.7 µM,53.7 µM,26.91 µM,7.78 µM,15.85 µM,4.33 µM,1.87 µM,6.61 µM,2.02 µM,7.76 µM,3.98 µM,3.59 µM,6.23 µM,1.96 µM,10.7 µM,4.03 µM,6.12 µM,5.5 µM,−88.58%,77.2%,"CC50 ([3]; Homo sapiens, read-out: LC50 (molar concentration leading to 50% net cell death)): 40.7 µM; CC50 ([4]; Homo sapiens, UACC-257, read-out: LC50 (molar concentration leading to 50% net cell death)): 26.9 µM; EC50 [9]: 17.7 µM; IAV/MDCK SI [10]: 0.35; inhibition at 10 µM [17]: 95.5%; growth inhibition (GI%) and cytotoxicity (negative values) [18]: −89.68%; inhibition at 10 µM [19]: 84.7%; inhibition at 10 µM [20]: 60.2%; growth inhibition (GI%) and cytotoxicity (negative values) [21]: −23.10%; inhibition at 10 µM ([22]; Homo sapiens, HT-29, read-out: growth inhibition (GI%) and cytotoxicity (negative values)): 94.7%; growth inhibition (GI%) and cytotoxicity (negative values) [23]: −69.37%; inhibition at 10 µM [24]: < 60%; growth inhibition (GI%) and cytotoxicity (negative values) [25]: −91.84%; growth inhibition (GI%) and cytotoxicity (negative values) [26]: −84.03%; inhibition at 10 µM ([27]; Homo sapiens, RXF 393, read-out: growth inhibition (GI%) and cytotoxicity (negative values)): 78.2%; inhibition at 10 µM [28]: 70.3%; growth inhibition (GI%) and cytotoxicity (negative values) ([29]; human): −40.23%; growth inhibition (GI%) and cytotoxicity (negative values) ([30]; human): −1.74%; growth inhibition (GI%) and cytotoxicity (negative values) ([31]; human): −52.93%; GI50 [32]: 9.38 µM"
"O=C(NCCCN1CCN(c2ccccc2)CC1)c1cc2c([nH]1)-c1ccccc1CCC2 [Compound 10, N-(3-(4-Phenylpiperazin-1-yl)propyl)-1,4,5,6-tetrahydrobenzo[6,7]cyclohepta[1,2-b]pyrrole-2-carboxamide]",14.9 µM,81.3 µM,34.67 µM,4.71 µM,19.5 µM,3.62 µM,2.29 µM,6.61 µM,1.65 µM,15.5 µM,4.36 µM,8.89 µM,12.4 µM,1.92 µM,8.21 µM,3.14 µM,67.8 µM,4.83 µM,−29.31%,74.2%,"GI50 [33]: 2.93 µM; GI50 [34]: 2.06 µM; inhibition at 10 µM [17]: 80.2%; growth inhibition (GI%) and cytotoxicity (negative values) [18]: −72.58%; inhibition at 10 µM [19]: 89.4%; inhibition at 10 µM [20]: < 60%; growth inhibition (GI%) and cytotoxicity (negative values) [21]: −30.92%; growth inhibition (GI%) and cytotoxicity (negative values) ([22]; human): −2.47%; growth inhibition (GI%) and cytotoxicity (negative values) [23]: −59.25%; inhibition at 10 µM [24]: < 60%; growth inhibition (GI%) and cytotoxicity (negative values) [25]: −9.32%; growth inhibition (GI%) and cytotoxicity (negative values) [26]: −72.64%; growth inhibition (GI%) and cytotoxicity (negative values) ([27]; human): −8.69%; inhibition at 10 µM [28]: 73.7%; inhibition at 10 µM ([29]; Homo sapiens, SW-620, read-out: growth inhibition (GI%) and cytotoxicity (negative values)): 80.1%; inhibition at 10 µM ([30]; Homo sapiens, RPMI-8226, read-out: growth inhibition (GI%) and cytotoxicity (negative values)): < 60%; inhibition at 10 µM ([31]; Homo sapiens, SK-MEL-2, read-out: growth inhibition (GI%) and cytotoxicity (negative values)): 75%; GI50 [32]: 4.89 µM"
